# Experimental data published in PubChem BioAssay AID228 (DTP/NCI, 2004).
# “And” between values parts separate entries of the source, which are not always exact repeats. Equal values may be shown once. Inconclusive results are not listed.
# Tested on: BDF1 mice, Friend leukemia sc, tumor weight T/C
# Test: NCI In Vivo Anticancer Drug Screen. Data for tumor model Friend Virus Leukemia (Solid) (subcutaneous) in B6D2F1 (BDF1) mice
# Settings: endpoint: mean tumor weight, higher = larger tumour
# Protocol: The antitumor activity of compounds was measured in mice bearing transplantable tumors. Survival or tumor size were measured and the results are expressed as the measurement made in the treated group (T) divided by the measurement made in the vehicle treated control group (C). The tumor model used in this assay is Friend Virus Leukemia (Solid) (subcutaneous) in B6D2F1 (BDF1) mice
# [1] = dose: 37.5 mg/kg/injection, schedule: Q01DX011 (ip), vehicle: saline
# [2] = dose: 15.0 mg/kg/injection, schedule: Q01DX011 (ip), vehicle: carboxymethylcellulose (CMC)
# [3] = dose: 30.0 mg/kg/injection, schedule: Q01DX011 (ip), vehicle: carboxymethylcellulose (CMC)
smiles,measurement,setting,value
NC(Cc1ccc(N(CCCl)CCCl)cc1)C(=O)O (stereo not given),T/C,"dose: 0.32 mg/kg/injection, schedule: Q01DX011 (ip), vehicle: carboxymethylcellulose (CMC)",101 % of control
same,T/C,"dose: 0.64 mg/kg/injection, schedule: Q01DX011 (ip), vehicle: carboxymethylcellulose (CMC)",87 % of control
same,T/C,"dose: 1.0 mg/kg/injection, schedule: Q01DX011 (ip), vehicle: carboxymethylcellulose (CMC)",65 % of control
same,T/C,"dose: 1.28 mg/kg/injection, schedule: Q01DX011 (ip), vehicle: carboxymethylcellulose (CMC)",101 % of control
same,T/C,"dose: 2.0 mg/kg/injection, schedule: Q01DX011 (ip), vehicle: carboxymethylcellulose (CMC)",60 % of control
same,T/C,"dose: 2.56 mg/kg/injection, schedule: Q01DX011 (ip), vehicle: carboxymethylcellulose (CMC)",70 % of control
same,T/C,"dose: 3.0 mg/kg/injection, schedule: Q01DX011 (ip), vehicle: carboxymethylcellulose (CMC)",57 % of control
same,T/C,"dose: 4.0 mg/kg/injection, schedule: Q01DX011 (ip), vehicle: carboxymethylcellulose (CMC)",32 % of control
same,T/C,"dose: 5.0 mg/kg/injection, schedule: Q01DX011 (ip), vehicle: carboxymethylcellulose (CMC)",36 % of control
same,T/C,"dose: 6.0 mg/kg/injection, schedule: Q01DX011 (ip), vehicle: carboxymethylcellulose (CMC)",13 % of control
same,T/C,"dose: 8.0 mg/kg/injection, schedule: Q01DX011 (ip), vehicle: carboxymethylcellulose (CMC)",7 % of control
c1ccc2[nH]cnc2c1,T/C,"dose: 38.5 mg/kg/injection, schedule: Q01DX011 (ip), vehicle: carboxymethylcellulose (CMC)",82 % of control and 88 % of control
same,T/C,"dose: 77.0 mg/kg/injection, schedule: Q01DX011 (ip), vehicle: carboxymethylcellulose (CMC)",80 % of control and 83 % of control
same,T/C,"dose: 308.0 mg/kg/injection, schedule: Q01DX011 (ip), vehicle: carboxymethylcellulose (CMC)",102 % of control
CN(C)c1ccc(/C=C/c2ccnc3ccccc23)cc1,T/C,[1],73 % of control
same,T/C,"dose: 50.0 mg/kg/injection, schedule: Q01DX011 (ip), vehicle: saline",51 % of control
Cc1ccc(N2CCN(CCCN3CCN(c4ccc(Cl)cc4)CC3)CC2)cc1,T/C,"dose: 7.5 mg/kg/injection, schedule: Q01DX011 (ip), vehicle: carboxymethylcellulose (CMC)",80 % of control
same,T/C,[2],61 % of control
same,T/C,[3],55 % of control and 50 % of control
same,T/C,"dose: 60.0 mg/kg/injection, schedule: Q01DX011 (ip), vehicle: carboxymethylcellulose (CMC)",49 % of control
COC(=S)SCN(CSC(=S)OC)c1ccccc1Cl,T/C,"dose: 125.0 mg/kg/injection, schedule: Q01DX011 (ip), vehicle: saline",95 % of control
same,T/C,"dose: 250.0 mg/kg/injection, schedule: Q01DX011 (ip), vehicle: saline",107 % of control
CCCCNc1ncnc2c1cnn2C,T/C,"dose: 4.0 mg/kg/injection, schedule: Q01DX011 (ip), vehicle: saline",150 % of control
same,T/C,"dose: 16.0 mg/kg/injection, schedule: Q01DX011 (ip), vehicle: saline",117 % of control
same,T/C,"dose: 31.0 mg/kg/injection, schedule: Q01DX011 (ip), vehicle: saline",84 % of control
NNC(=O)c1ccncc1,T/C,[2],80 % of control
same,T/C,[3],75 % of control
same,T/C,"dose: 121.0 mg/kg/injection, schedule: Q01DX011 (ip), vehicle: carboxymethylcellulose (CMC)",55 % of control
CC(C)(CC(=O)O)CC(=O)OCC(=O)[C@@]1(O)CC[C@H]2[C@@H]3CCC4=CC(=O)C=C[C@]4(C)[C@H]3[C@@H](O)C[C@@]21C,T/C,"dose: 9.0 mg/kg/injection, schedule: Q01DX011 (sc), vehicle: steriod suspending solution",61 % of control
same,T/C,"dose: 19.0 mg/kg/injection, schedule: Q01DX011 (sc), vehicle: steriod suspending solution",58 % of control
same,T/C,"dose: 37.5 mg/kg/injection, schedule: Q01DX011 (sc), vehicle: steriod suspending solution",48 % of control
same,T/C,"dose: 38.0 mg/kg/injection, schedule: Q01DX011 (sc), vehicle: steriod suspending solution",50 % of control
same,T/C,"dose: 75.0 mg/kg/injection, schedule: Q01DX011 (sc), vehicle: steriod suspending solution",46 % of control and 47 % of control
same,T/C,"dose: 150.0 mg/kg/injection, schedule: Q01DX011 (sc), vehicle: steriod suspending solution",46 % of control and 47 % of control
same,T/C,"dose: 300.0 mg/kg/injection, schedule: Q01DX011 (sc), vehicle: steriod suspending solution",37 % of control and 38 % of control
same,T/C,"dose: 600.0 mg/kg/injection, schedule: Q01DX011 (sc), vehicle: steriod suspending solution",31 % of control
CN(C)c1ccc(C(=C(c2ccc(N(C)C)cc2)c2ccc(N(C)C)cc2)c2ccc(N(C)C)cc2)cc1,T/C,"dose: 3.0 mg/kg/injection, schedule: Q01DX011 (ip), vehicle: olive oil, sesame oil, peanut oil",179 % of control
same,T/C,"dose: 6.0 mg/kg/injection, schedule: Q01DX011 (ip), vehicle: olive oil, sesame oil, peanut oil",178 % of control and 237 % of control
same,T/C,"dose: 12.5 mg/kg/injection, schedule: Q01DX011 (ip), vehicle: olive oil, sesame oil, peanut oil",178 % of control
same,T/C,"dose: 50.0 mg/kg/injection, schedule: Q01DX011 (ip), vehicle: olive oil, sesame oil, peanut oil",65 % of control and 63 % of control
same,T/C,"dose: 200.0 mg/kg/injection, schedule: Q01DX011 (ip), vehicle: olive oil, sesame oil, peanut oil",55 % of control
same,T/C,"dose: 300.0 mg/kg/injection, schedule: Q01DX011 (ip), vehicle: olive oil, sesame oil, peanut oil",82 % of control
same,T/C,"dose: 400.0 mg/kg/injection, schedule: Q01DX011 (ip), vehicle: olive oil, sesame oil, peanut oil",80 % of control
CC(=O)OCC(=O)[C@@]1(O)CC[C@H]2[C@@H]3CCC4=CC(=O)CC[C@]4(C)[C@H]3C(=O)C[C@@]21C,T/C,"dose: 5.62 mg/kg/injection, schedule: Q01DX011 (sc), vehicle: steriod suspending solution",59 % of control
same,T/C,"dose: 8.0 mg/kg/injection, schedule: Q01DX011 (sc), vehicle: steriod suspending solution",97 % of control
same,T/C,"dose: 11.25 mg/kg/injection, schedule: Q01DX011 (sc), vehicle: steriod suspending solution",33 % of control
same,T/C,"dose: 16.0 mg/kg/injection, schedule: Q01DX011 (sc), vehicle: steriod suspending solution",69 % of control
same,T/C,"dose: 22.5 mg/kg/injection, schedule: Q01DX011 (sc), vehicle: steriod suspending solution",21 % of control
same,T/C,"dose: 31.0 mg/kg/injection, schedule: Q01DX011 (sc), vehicle: steriod suspending solution",15 % of control and 29 % of control (2×)
same,T/C,"dose: 34.0 mg/kg/injection, schedule: Q01DX011 (sc), vehicle: steriod suspending solution",50 % of control
same,T/C,"dose: 45.0 mg/kg/injection, schedule: Q01DX011 (sc), vehicle: steriod suspending solution",13 % of control
same,T/C,"dose: 62.0 mg/kg/injection, schedule: Q01DX011 (sc), vehicle: steriod suspending solution",7 % of control and 9 % of control and 18 % of control
same,T/C,"dose: 68.0 mg/kg/injection, schedule: Q01DX011 (sc), vehicle: steriod suspending solution",28 % of control
same,T/C,"dose: 125.0 mg/kg/injection, schedule: Q01DX011 (sc), vehicle: steriod suspending solution",3 % of control and 15 % of control and 20 % of control
same,T/C,"dose: 250.0 mg/kg/injection, schedule: Q01DX011 (sc), vehicle: steriod suspending solution",3 % of control and 6 % of control and 20 % of control
C[C@]12C=CC(=O)C=C1CC[C@@H]1[C@@H]2[C@@H](O)C[C@@]2(C)[C@H]1CC[C@]2(O)C(=O)COC(=O)C1CCCC1,T/C,"dose: 0.12 mg/kg/injection, schedule: Q01DX011 (sc), vehicle: steriod suspending solution",103 % of control
same,T/C,"dose: 0.25 mg/kg/injection, schedule: Q01DX011 (sc), vehicle: steriod suspending solution",102 % of control
same,T/C,"dose: 0.5 mg/kg/injection, schedule: Q01DX011 (sc), vehicle: steriod suspending solution",95 % of control
same,T/C,"dose: 3.0 mg/kg/injection, schedule: Q01DX011 (sc), vehicle: steriod suspending solution",46 % of control
same,T/C,"dose: 6.0 mg/kg/injection, schedule: Q01DX011 (sc), vehicle: steriod suspending solution",47 % of control
same,T/C,"dose: 6.3 mg/kg/injection, schedule: Q01DX011 (sc), vehicle: steriod suspending solution",38 % of control
same,T/C,"dose: 12.0 mg/kg/injection, schedule: Q01DX011 (sc), vehicle: steriod suspending solution",33 % of control
same,T/C,"dose: 12.5 mg/kg/injection, schedule: Q01DX011 (sc), vehicle: steriod suspending solution",25 % of control
same,T/C,"dose: 25.0 mg/kg/injection, schedule: Q01DX011 (sc), vehicle: steriod suspending solution",10 % of control and 24 % of control
same,T/C,"dose: 50.0 mg/kg/injection, schedule: Q01DX011 (sc), vehicle: steriod suspending solution",8 % of control and 14 % of control
same,T/C,"dose: 100.0 mg/kg/injection, schedule: Q01DX011 (sc), vehicle: steriod suspending solution",7 % of control
Nc1ccc(O)cc1,T/C,"dose: 100.0 mg/kg/injection, schedule: Q01DX011 (ip), vehicle: saline",64 % of control
same,T/C,"dose: 200.0 mg/kg/injection, schedule: Q01DX011 (ip), vehicle: saline",4 % of control
C=CC(=O)NCNC(=O)C=C,T/C,"dose: 15.0 mg/kg/injection, schedule: Q01DX011 (ip), vehicle: saline",89 % of control
same,T/C,"dose: 30.0 mg/kg/injection, schedule: Q01DX011 (ip), vehicle: saline",84 % of control
same,T/C,"dose: 60.0 mg/kg/injection, schedule: Q01DX011 (ip), vehicle: saline",70 % of control and 51 % of control
same,T/C,"dose: 120.0 mg/kg/injection, schedule: Q01DX011 (ip), vehicle: saline",16 % of control and 39 % of control
NCC(O)c1ccc(O)c(O)c1 (stereo not given),T/C,"dose: 9.37 mg/kg/injection, schedule: Q01DX011 (ip), vehicle: saline",84 % of control
same,T/C,"dose: 18.75 mg/kg/injection, schedule: Q01DX011 (ip), vehicle: saline",69 % of control
same,T/C,[1],30 % of control
